Reference: patent US8193191B2, “Urotensin II receptor antagonists” (Janssen Pharmaceutica N.V., priority 2006, dated 2012)

Tests used:
[1] = biological target: T1, rat GPR14 (U-II receptor) (Rattus norvegicus, UniProt P49684); test: Rat UII Calcium Mobilization FLIPR Assay; type: cell-based; conditions: average value for the compound tested; read-out: Rat UII FLIPR Average IC50
T1 construct: expressed in transfected cells
T1 sequence (P49684 1-386): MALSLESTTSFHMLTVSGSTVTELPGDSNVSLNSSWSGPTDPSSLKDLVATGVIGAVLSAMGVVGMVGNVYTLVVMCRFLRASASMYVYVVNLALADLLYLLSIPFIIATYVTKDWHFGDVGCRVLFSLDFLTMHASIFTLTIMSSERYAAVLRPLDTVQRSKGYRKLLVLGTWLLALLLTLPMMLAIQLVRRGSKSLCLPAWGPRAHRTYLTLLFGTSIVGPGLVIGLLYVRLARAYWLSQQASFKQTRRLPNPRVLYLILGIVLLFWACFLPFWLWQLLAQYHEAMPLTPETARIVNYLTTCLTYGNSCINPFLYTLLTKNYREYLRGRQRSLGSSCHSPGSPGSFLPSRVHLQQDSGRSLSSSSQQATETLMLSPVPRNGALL
Outline: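 CHO cells stably expressing rat U-II receptor, seeded 24 h before assay, were loaded with FLIPR calcium dye in HBSS/20 mM HEPES/0.1% BSA/2.5 mM probenecid, pH 7.4, for 1 h at 37° C. Calcium mobilization then read by FLIPR at 23° C.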

[2] = biological target: T2, Human UII receptor, 6D9 human rhabdomyosarcoma cells (Homo sapiens, UniProt Q9UKP6); test: Human UII Calcium Mobilization Assay; type: cell-based; conditions: average value, FLIPR TETRA, read-out: Human UII Ca^+ Mobilization Average IC50
T2 construct: 6D9: isolated by dilution subcloning of RMS13 cells, ATCC® Number: CRL-2061; host or cells: 6D9 human rhabdomyosarcoma cells (subclone of RMS13)
T2 sequence (Q9UKP6 1-389): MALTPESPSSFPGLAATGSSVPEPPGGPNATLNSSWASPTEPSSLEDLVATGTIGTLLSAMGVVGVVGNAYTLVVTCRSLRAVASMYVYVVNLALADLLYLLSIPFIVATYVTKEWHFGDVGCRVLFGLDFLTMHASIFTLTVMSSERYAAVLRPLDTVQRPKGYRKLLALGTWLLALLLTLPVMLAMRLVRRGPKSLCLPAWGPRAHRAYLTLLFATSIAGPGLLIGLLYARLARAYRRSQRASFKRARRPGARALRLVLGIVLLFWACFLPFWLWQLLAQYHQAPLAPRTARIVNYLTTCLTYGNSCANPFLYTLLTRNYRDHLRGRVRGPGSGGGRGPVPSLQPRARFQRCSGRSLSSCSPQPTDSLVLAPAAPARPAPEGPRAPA
Outline: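 6D9 rhabdomyosarcoma cells loaded 45 min at 37° C with calcium dye (1.25 mM probenecid, 0.01% FBS, HBSS/20 mM HEPES). Antagonist and U-II agonist added at room temperature; FLIPR fluorescence read over 4 min; EC50/IC50 fitted. DMSO ≤0.1% final.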

[3] = biological target: T3, endogenous human UII receptor (Homo sapiens, UniProt Q9UKP6); test: Human Radioligand Binding Assay ((^125I)-U-II binding to human skeletal muscle myoblasts)
T3 sequence (Q9UKP6 1-389): T2 sequence (Q9UKP6 1-389)

| SMILES | IC50 [1] [nM] | IC50 [2] [nM] | Ki [3] [nM] |
| --- | --- | --- | --- |
| COc1ccc([C@@H](CCNC(=O)c2ccncc2)N2C(=O)c3cccc(N4CCN([C@H](C)c5ccccc5)CC4)c3C2=O)cc1OC [Cpd 221, (R)-N-(3-(3,4-dimethoxy-phenyl)-3-{1,3-dioxo-4-[4-(1R)-(1-phenyl-ethyl)-piperazin-1-yl]-1,3-dihydro-isoindol-2-yl}-propyl)-isonicotinamide] | 15 | 910 | 72 |
| COc1ccc([C@@H](CCCNc2ncccn2)N2C(=O)c3cccc(N4CCN([C@H](C)c5ccccc5)CC4)c3C2=O)cc1OC [Cpd 145, (R)-2-[1-(3,4-dimethoxy-phenyl)-4-(pyrimidin-2-ylamino)-butyl]-4-[4-(1R)-(1-phenyl-ethyl)-piperazin-1-yl]-isoindole-1,3-dione] | 16 | 750 | 120 |
| COc1ccc(C(CCCNS(=O)(=O)c2c(C)noc2C)N2C(=O)c3cccc(N4CCN([C@H](C)c5ccccc5)CC4)c3C2=O)cc1OC (stereo partly drawn) [Cpd 112, 3,5-dimethyl-isoxazole-4-sulfonic acid (4-(3,4-dimethoxy-phenyl)-4-{1,3-dioxo-4-[4-(1R)-(1-phenyl-ethyl)-piperazin-1-yl]-1,3-dihydro-isoindol-2-yl}-butyl)-amide] | 69 | 1400 | 26 |
| COc1ccc([C@@H](CCCNS(=O)(=O)c2c(C)noc2C)N2C(=O)c3cccc(N4CCN([C@H](C)c5ccccc5)CC4)c3C2=O)cc1OC [Cpd 139, (R)-3,5-dimethyl-isoxazole-4-sulfonic acid (4-(3,4-dimethoxy-phenyl)-4-{1,3-dioxo-4-[4-(1R)-(1-phenyl-ethyl)-piperazin-1-yl]-1,3-dihydro-isoindol-2-yl}-butyl)-amide] | 29 | 290 | 46 |
| COc1ccc([C@@H](CCNS(=O)(=O)Cc2ccccc2)N2C(=O)c3cccc(N4CCN([C@H](C)c5ccccc5)CC4)c3C2=O)cc1OC [Cpd 222, (R)-N-(3-(3,4-dimethoxy-phenyl)-3-{1,3-dioxo-4-[4-(1R)-(1-phenyl-ethyl)-piperazin-1-yl]-1,3-dihydro-isoindol-2-yl}-propyl)-C-phenyl-methanesulfonamide] | 25 | 1500 | 140 |
| COc1ccc(C(CCCNS(=O)(=O)c2ccccn2)N2C(=O)c3cccc(N4CCN([C@H](C)c5ccccc5)CC4)c3C2=O)cc1OC (stereo partly drawn) [Cpd 107, pyridine-2-sulfonic acid (4-(3,4-dimethoxy-phenyl)-4-{1,3-dioxo-4-[4-(1R)-(1-phenyl-ethyl)-piperazin-1-yl]-1,3-dihydro-isoindol-2-yl}-butyl)-amide] | 25 | 440 | 10 |
| CCN1CCN(c2cccc3c2C(=O)N([C@H](CCCOCC(=O)O)c2ccc(OC)c(OC)c2)C3=O)CC1 [Cpd 218, (R)-{4-(3,4-dimethoxy-phenyl)-4-[4-(4-ethyl-piperazin-1-yl)-1,3-dioxo-1,3-dihydro-isoindol-2-yl]-butoxy}-acetic acid] | 240 | 2400 | > 300 |

Next, values leading:

| IC50 [1] [nM] | IC50 [2] [nM] | Ki [3] [nM] | SMILES |
| --- | --- | --- | --- |
| 13 | 1200 | 88 | COc1ccc([C@@H](CCCNC(=O)c2cn(C)cn2)N2C(=O)c3cccc(N4CCN([C@H](C)c5ccccc5)CC4)c3C2=O)cc1OC [Cpd 153, (R)-1-methyl-1H-imidazole-4-carboxylic acid (4-(3,4-dimethoxy-phenyl)-4-{1,3-dioxo-4-[4-(1R)-(1-phenyl-ethyl)-piperazin-1-yl]-1,3-dihydro-isoindol-2-yl}-butyl)-amide] |
| 9.8 | 340 | 72 | COc1ccc([C@@H](CCCNS(=O)(=O)c2cnn(C)c2C)N2C(=O)c3cccc(N4CCN([C@H](C)c5ccccc5)CC4)c3C2=O)cc1OC [Cpd 132, (R)-1,5-dimethyl-1H-pyrazole-4-sulfonic acid (4-(3,4-dimethoxy-phenyl)-4-{1,3-dioxo-4-[4-(1R)-(1-phenyl-ethyl)-piperazin-1-yl]-1,3-dihydro-isoindol-2-yl}-butyl)-amide] |
| 82 | 540 | 220 | CCN1CCN(c2cccc3c2C(=O)N([C@H](CCCNC(=O)OC(C)(C)C)c2ccc(OC)c(OC)c2)C3=O)CC1 [Cpd 197, (R)-{4-(3,4-dimethoxy-phenyl)-4-[4-(4-ethyl-piperazin-1-yl)-1,3-dioxo-1,3-dihydro-isoindol-2-yl]-butyl}-carbamic acid tert-butyl ester] |
| 8.6 | 1100 | 57 | CCOCCC(=O)NCCC[C@H](c1ccc(OC)c(OC)c1)N1C(=O)c2cccc(N3CCN([C@H](C)c4ccccc4)CC3)c2C1=O [Cpd 189, (R)-N-(4-(3,4-dimethoxy-phenyl)-4-{1,3-dioxo-4-[4-(1R)-(1-phenyl-ethyl)-piperazin-1-yl]-1,3-dihydro-isoindol-2-yl}-butyl)-3-ethoxy-propionamide] |
| 18 | 1100 | 350 | COc1ccc([C@@H](CCCNC2=CCCN2)N2C(=O)c3cccc(N4CCN([C@H](C)c5ccccc5)CC4)c3C2=O)cc1OC [Cpd 165, (R)-2-[4-(4,5-dihydro-1H-pyrrol-2-ylamino)-1-(3,4-dimethoxy-phenyl)-butyl]-4-[4-(1R)-(1-phenyl-ethyl)-piperazin-1-yl]-isoindole-1,3-dione] |
| 10 | 990 | 170 | C=CCN1CCN(c2cccc3c2C(=O)N([C@H](CCCNS(=O)(=O)c2cccs2)c2ccc(OC)c(OC)c2)C3=O)CC1 [Cpd 194, (R)-thiophene-2-sulfonic acid [4-[4-(4-allyl-piperazin-1-yl)-1,3-dioxo-1,3-dihydro-isoindol-2-yl]-4-(3,4-dimethoxy-phenyl)-butyl]-amide] |
| 14 | 1000 | 32 | COc1ccc([C@@H](CCNC(=O)c2cnoc2C)N2C(=O)c3cccc(N4CCN([C@H](C)c5ccccc5)CC4)c3C2=O)cc1OC [Cpd 217, (R)-5-methyl-isoxazole-4-carboxylic acid (3-(3,4-dimethoxy-phenyl)-3-{1,3-dioxo-4-[4-(1R)-(1-phenyl-ethyl)-piperazin-1-yl]-1,3-dihydro-isoindol-2-yl}-propyl)-amide] |
| 19 | 630 | 120 | COc1ccc([C@@H](CCCNC(=O)c2nccn2C)N2C(=O)c3cccc(N4CCN([C@H](C)c5ccccc5)CC4)c3C2=O)cc1OC [Cpd 161, (R)-1-methyl-1H-imidazole-2-carboxylic acid (4-(3,4-dimethoxy-phenyl)-4-{1,3-dioxo-4-[4-(1R)-(1-phenyl-ethyl)-piperazin-1-yl]-1,3-dihydro-isoindol-2-yl}-butyl)-amide] |
| 11 | 620 | 19 | COc1ccc([C@@H](CCCNC(=O)C(C)C)N2C(=O)c3cccc(N4CCN([C@H](C)c5ccccc5)CC4)c3C2=O)cc1OC [Cpd 174, (R)-N-(4-(3,4-dimethoxy-phenyl)-4-{1,3-dioxo-4-[4-(1R)-(1-phenyl-ethyl)-piperazin-1-yl]-1,3-dihydro-isoindol-2-yl}-butyl)-isobutyramide] |
| 6.1 | 290 | 20 | COc1ccc([C@@H](CCCNC(=O)c2cn[nH]c2)N2C(=O)c3cccc(N4CCN([C@H](C)c5ccccc5)CC4)c3C2=O)cc1OC [Cpd 190, (R)-1H-pyrazole-4-carboxylic acid (4-(3,4-dimethoxy-phenyl)-4-{1,3-dioxo-4-[4-(1R)-(1-phenyl-ethyl)-piperazin-1-yl]-1,3-dihydro-isoindol-2-yl}-butyl)-amide] |
| 7 | 640 | 30 | COc1ccc([C@@H](CCCNS(=O)(=O)c2cccs2)N2C(=O)c3cccc(N4CCN(C5CCC5)CC4)c3C2=O)cc1OC [Cpd 192, (R)-thiophene-2-sulfonic acid [4-[4-(4-cyclobutyl-piperazin-1-yl)-1,3-dioxo-1,3-dihydro-isoindol-2-yl]-4-(3,4-dimethoxy-phenyl)-butyl]-amide] |
